Read-outs that look alike come from different tables or passages of the source. Marks after values point to notes of the source that are not given here.
Columns and labels:
Bruton's Tyrosine Kinase = Bruton's Tyrosine Kinase (Homo sapiens, UniProt Q06187); assay: Bruton's Tyrosine Kinase (BTK) inhibition TR-FRET competition assay; type: binding; details: for IC50: inactivated state of BTK, 18-24 h at 14° C.
Experimental: This BTK competition assay measures compound potency (IC50) for the inactivated state of Bruton's Tyrosine Kinase using FRET (Firster/Fluorescence Resonance Energy Transfer) technology. The BTK-Eu complex was incubated on ice one hour prior to use at a starting concentration of 50 nM BTK-Bioease™: 10 nM Eu-streptavidin (Perkin-Elmer Catalog#AD0062). The assay buffer consisted of 20 mM HEPES (pH 7.15), 0.1 mM DTT, 10 mM MgCl2, 0.5 mg/ml BSA with 3% Kinase Stabilizer (Fremont Biosolutions, Catalog #STB-K02). After 1 h, the reaction mixture from above was diluted 10 fold in assay buffer to make 5 nM BTK: InM Eu-Streptavidin complex (donor fluorophore). 18 l of a mixture of 0.11 nM BTK-Eu and 0.11 nM Kinase Tracer 178 (Invitrogen, Catalog #PV5593,) with BTK-Eu alone as no negative control, was then dispensed into 384-well flat bottom plates (Greiner, 784076). Compounds to be tested in assay were prepared as 10× concentrations and serial dilution in half-log increments was performed in DMSO so as to generate 10 point curves. To initiate the FRET reaction, compounds prepared as 10× stock in DMSO was added to the plates and the plates were incubated 18-24 h at 14° C.
After the incubation the plates were read on a BMG Pherastar Fluorescent plate reader (or equivalent) and used to measure the emission energy from the europium donor fluorophore (620 nm emission) and the FRET (665 nm emission). The negative control well values were averaged to obtain the mean minimum. The positive “no inhibitor” control wells were averaged to obtain the mean maximum. Percent of maximal FRET was calculated using following equation:
% max FRET=100×[(FSRcmpd−FSRmean min)/(FSRmean max−FSRmean min)]
where FSR=FRET Signal ratio. % Max FRET curves were plotted in Activity Base (Excel) and the IC50(%), hill slope, z′ and % CV were determined. The mean IC50 and standard deviation will be derived from duplicate curves (singlet inhibition curves from two independent dilutions) using Microsoft Excel.

[1] = system: human mast cells (FCεRI activation); assay: Human mast cell activation, mediator release after FCεRI activation; type: cell-based; details: N = 3 donors
Experimental: One million human cord blood derived CD34+ hematopoietic stem cells (HSCs) from different donors (AllCells #CB008F-S, Emeryville, Calif.) were cultured for eight weeks in a serum-free complete medium (StemPro-34 with supplements; Invitrogen, Carlsbad, Calif.), with recombinant h-SCF (100 ng/ml) and h-IL6 (50 ng/ml). During the first week of culturing, recombinant h-IL3 (10 ng/ml) was also included to support HSCs differentiation. After 8 weeks of culture, cells were stimulated with recombinant h-IL-4 (10 ng/ml) for 5 days. Confirmation of the mast cell differentiation process was routinely done by FACS to check for c-kit and FcsRI expression; differentiated cells were routinely more than 90% c-kit positive, FceRI positive. Differentiated mast cells were sensitized with […] anti-NP IgE (Serotec, Raleigh, N.C.) overnight at 37° C. Cells were washed and then treated with Compound 1 for 1 hour at 37° C. After treatment, cells were cross-linked with […] NP(30)-BSA (Biosearch Technologies, Novato Calif.) for 30 minutes (for histamine and lipid mediator assessment) or overnight (for cytokine assessment). Culture supernatants were collected and assayed for histamine (Oxford Biomedical Research, Rochester Hills, Mich.), PGD2 and LTC4 (Cayman Chemical Company, Ann Arbor Mich.), and IL-5 and IL-13 (Bio-Rad Bio-Plex Pro cytokine quantification kit) release as per kits' instructions. Compound 1, Compound 2 and Compound 3 reduced the release of these mediators into the supernatant in a concentration dependent manner up to 100% efficacy and the IC50 values are reported in Table 2.

[2] = system: human B cells (BCR activation); assay: Human B cell antibody production after BCR activation; type: cell-based; details: Homo sapiens, B-cell, 240 h, 10 days culture, N = 3 donors
Experimental: Human total B cells were enriched with RosetteSep human B cell enrichment cocktail (#28921, Vancouver, BC) from buffy coat leukocyte packs (New York Blood Center) following manufacturer's protocol. Enriched B cell purity (around 80%) was checked by FACS with CD19+ staining. B cells were suspended (0.1 million cells/well/100 μl) in RPMI-1640 based conditional medium (50 ng/ml IL-2, 50 ng/ml IL-10, and […] anti-IgD for the activation of B cells to produce IgG/IgM; 10 ng/ml IL-4, 10 ng/ml IL-10, 25 ng/ml IL-21, and […] anti-CD40 for the activation of B cells to produce IgE) together with Compound 1 (1 nM-10 μM). Cells were cultured for 10 days (for IgG/IgM production) or 14 days (for IgE production) at 37° C. Culture supernatants were collected for IgM, IgG, and IgE analysis following Bethyl Laboratory's protocol (#E80-104, #E80-100, #E80-108, Montgomery, Tex.).

Pharmacokinetics in rat = type: in vivo; details: for CL / clearance: 0.5 mg/kg (iv); for Oral Bioavailability / bioavailability: 0.5 (iv), 2 (po) mg/kg; for clearance / bioavailability: plasma; for bioavailability: 2 mg/kg
Pharmacokinetics in dog = type: in vivo; details: for CL / clearance: 1.0 mg/kg (iv); for Oral Bioavailability / bioavailability: 1.0 (iv), 1.0 (po) mg/kg; for clearance / bioavailability: plasma; for bioavailability: 1 mg/kg
Btk kinase = Btk kinase (Homo sapiens, UniProt Q06187); assay: Btk Biacore binding assay; details: for off rate: Biacore; for kon: read-out: Biacore Ka
Experimental: Analyses were performed on a Biacore T-100. Btk kinase was avi-tagged and co-expressed in baculovirus with biotin ligase to generate single site biotinylated Btk (Avidity, LLC). Biotinylated target was captured on Biacore streptavidin sensor chips (Series S Sensor Chip SA) at densities of ˜10000 resonance units (1 ru˜1 pg protein/mm2). […] Compounds were injected for 100 seconds association time and dissociation was followed for 20 min.

[3] = system: OVA sensitized and challenged mice, allergen-induced bronchoconstriction; assay: Ovalbumin-induced allergic airway disease: allergen-induced bronchoconstriction; details: Intranasal
[4] = read-out: IC50 Histamine release
[5] = delivered dose 0.3 mg/kg, deposited dose 0.3 mg/kg
[6] = delivered dose 1.0 mg/kg, deposited dose 1.0 mg/kg
[7] = delivered dose 3.0 mg/kg, deposited dose 3.0 mg/kg

Sequence of Btk kinase (Q06187 whole entry): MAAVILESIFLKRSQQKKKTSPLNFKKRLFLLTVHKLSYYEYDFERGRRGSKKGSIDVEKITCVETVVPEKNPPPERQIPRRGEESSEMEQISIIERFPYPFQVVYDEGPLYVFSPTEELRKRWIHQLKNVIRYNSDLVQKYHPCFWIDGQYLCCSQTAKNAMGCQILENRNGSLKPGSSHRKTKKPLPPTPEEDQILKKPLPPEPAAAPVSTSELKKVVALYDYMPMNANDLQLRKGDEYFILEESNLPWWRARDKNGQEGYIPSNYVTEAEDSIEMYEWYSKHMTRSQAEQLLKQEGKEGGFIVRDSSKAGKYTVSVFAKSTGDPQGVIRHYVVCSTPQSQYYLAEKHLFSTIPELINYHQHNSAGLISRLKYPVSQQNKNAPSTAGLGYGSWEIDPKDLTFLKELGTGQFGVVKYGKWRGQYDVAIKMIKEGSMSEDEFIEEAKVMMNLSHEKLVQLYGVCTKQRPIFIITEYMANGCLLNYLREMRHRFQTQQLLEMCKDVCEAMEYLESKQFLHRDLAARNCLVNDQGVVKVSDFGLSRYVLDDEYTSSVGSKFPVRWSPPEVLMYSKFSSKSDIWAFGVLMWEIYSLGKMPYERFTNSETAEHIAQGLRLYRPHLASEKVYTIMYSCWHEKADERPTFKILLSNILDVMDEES
Sequence of Bruton's Tyrosine Kinase (Q06187 whole entry): as above

SMILES | Btk inhibitor potency (FRET) (Bruton's Tyrosine Kinase) | IC50 (Bruton's Tyrosine Kinase) [nM] | IC50 ([1]; read-out: IC50 1L-13 release) [nM] | IC50 ([1]; read-out: IC50 GM-CSF release) [nM] | IC50 [1, 4] [nM] | IC50 ([1]; read-out: IC50 IL-5 release) [nM] | IC50 ([1]; read-out: IC50 PGD2 release) [nM] | IC50 ([2]; read-out: IC50 IgG production) [nM] | IC50 ([2]; read-out: IC50 IgM production) [nM] | Kd (Btk kinase) [nM] | off rate (Btk kinase) | kon (Btk kinase) [M⁻¹ s⁻¹] | % reduction in airway resistance (R) [3, 5] | % reduction in airway resistance (R) [3, 6] | % reduction in airway resistance (R) [3, 7] | other results
Cn1nc(Nc2cc(-c3cccc(-n4ccc5cc(C(C)(C)C#N)cc(F)c5c4=O)c3CO)nn(C)c2=O)cc1CN1CCC1 [Compound 2, 2-(2-{3-[5-(5-Azetidin-1-ylmethyl-1-methyl-1H-pyrazol-3-ylamino)-1-methyl-6-oxo-1,6-dihydro-pyridazin-3-yl]-2-hydroxymethyl-phenyl}-8-fluoro-1-oxo-1,2-dihydro-isoquinolin-6-yl)-2-methyl-propionitrile] | very potent | 1.1 | 91.9 | 26 | 9.6 | 13.2 | 3.09 | 9.26 | 3.28 | 1.48 | very slow | 453000 | 53% | 64* % | 105* % | CL (Pharmacokinetics in rat; Table 8): high; Oral Bioavailability (Pharmacokinetics in rat; Table 8): low; clearance (Pharmacokinetics in rat; Table 8): 84.9 mL/min/kg; bioavailability (Pharmacokinetics in rat; Table 8): < 2%; CL (Pharmacokinetics in dog; Table 8): high; Oral Bioavailability (Pharmacokinetics in dog; Table 8): low; clearance (Pharmacokinetics in dog; Table 8): 35 mL/min/kg; bioavailability (Pharmacokinetics in dog; Table 8): 4%
COCCNCc1ccc(Nc2cc(-c3cccc(N4CCc5cc(C(C)(C)C)ccc5C4=O)c3CO)cn(C)c2=O)nc1 [Compound 3, 6-tert-Butyl-2-[2-hydroxymethyl-3-(5-{5-[(2-methoxy-ethylamino)-methyl]-pyridin-2-ylamino}-1-methyl-6-oxo-1,6-dihydro-pyridin-3-yl)-phenyl]-3,4-dihydro-2H-isoquinolin-1-one] | very potent | 0.2 | 97.4 | 28.6 | 21.7 | 86.7 | 5.31 | 3.17 | 4.76 | 0.119 | very slow | 1.07e+06 | 77* % | 83* % | 93* % | CL (Pharmacokinetics in rat; Table 9): high; Oral Bioavailability (Pharmacokinetics in rat; Table 9): low; clearance (Pharmacokinetics in rat; Table 9): 111 mL/min/kg; bioavailability (Pharmacokinetics in rat; Table 9): 7%; CL (Pharmacokinetics in dog; Table 9): high; Oral Bioavailability (Pharmacokinetics in dog; Table 9): low; clearance (Pharmacokinetics in dog; Table 9): 31.4 mL/min/kg; bioavailability (Pharmacokinetics in dog; Table 9): 8%

— US20150290192A1, “INHIBITORS OF BRUTON'S TYROSINE KINASE” (HOFFMANN-LA ROCHE INC., priority 2012, published 2015)
